# Source: patent US6573296B2, “Therapeutic quassinoid preparations with antineoplastic, antiviral, and herbistatic activity” (priority 1997, dated 2003)
# Tests used:
# C38 = experiment: soft agar disk diffusion zone of inhibition assay; format: cell-based, mice; conditions: 25 ug/disk
# human rhinovirus-14 = experiment: cytopathic effect of rhinovirus in HeLa cells; format: cell-based; conditions: HeLa cells (Wisconsin strain), visually observed
# Procedure: C. HeLa cells (Wisconsin strain, Berlin, Germany) were contacted with human rhinovirus-14. Infected cells (Wisconsin strain) were visually observed. […] HeLa cells were not killed by any compounds used. Cells of other HeLa lines (eg. ATCC CCL2) were killed. Glaucarubolone, simalikalactone D and chaparrinone were tested on cell killing and virus production by primary blood monocytes. All three drugs were tested at five concentrations (0, 10^−9, 10^−8, 10^−7, and 10^−6 M). Drugs were given at different times pre-infection, given at the time of infection, or were administered at different times post-infection.
# [1] = system: Arabadopsis (var. Columbia); experiment: growth of plants in soil after foliar application; format: in vivo
# Procedure: (§1) To evaluate the growth phenotype of a set of plants, a 1 mg concentration of 100 Mm (solution QD-2). This solution was diluted serially with water with or without Triton X-100, ethanol or DMSO and used directly for measurement of effects on seed germination or applied using a microliter syringe to foliage to evaluate growth effects on plants.
# When applied to Arabadopsis (var. Columbia) growing in soil in 4 inch plastic pots, the glaucarubolone preparation was herbicidal at dilutions of 1:100 and 1:1000 (10 μ1/half pot). Plants were treated after 10 days of germination. At a dilution of 1:10,000, the plants were not killed but growth was completely stopped for about 3 weeks. Growth resumed about 30 days after treatment. […] The calculated application rate was 2.5×10^−3 oz/A.
# In an experiment with Arabadopsis where the quassinoid preparation was administered in ethanol, herbicidal activity was observed down to a dilution of 1:10^4 (2.5×10^−5 oz/A) and a dilution of 1:10^5 (2.5×10^−6 oz/A) appeared to stop growth for at least 30 days. All plants were watered from the bottom to reduce surface spreading of the material. The inhibited phenotype includes an impaired ability of the plants to grow, i.e., cell elongation/cell expansion is prevented or reduced by at least 50% over several weeks.
# Sorghum (DeKalb 18) = experiment: growth of plants in soil after foliar application; format: in vivo; conditions: twenty days after treatment, 10 μl of 1:1000/half pot; control plants 16 cm
# Procedure: as §1
# Sorghum (DeKalb 18) plants growing in soil were treated as for Arabadopsis thaliani above after 6 days of germination when the plants were about 5 cm high (as the leaf emerged from the coleoptile sheath). Growth was retarded. Twenty days after treatment, control plants were 16 cm high and treated plants were 12 cm high. The application rate was 10 µl of 1:1000/half pot=2.5×10^−3 oz/A.
# Tomato plants = experiment: growth of plants in peat after treatment; format: in vivo
# Procedure: Tomato plants about 3.5 cm high at the time of treatment were grown in peat in a flat of 1.5 inch diameter compartments and were treated with either aqueous simalikalactone (solution QD-1) or aqueous glaucarubolone (solution QD-2) containing 0.1% Triton X-100. The final volume/plant was 10 μ1 for the aqueous solution and 200 µl of the aqueous solution containing Triton X-100. […] With the aqueous treatment, plants also were inhibited but not as markedly as with detergent.
# M17/Adr = conditions: multidrug resistant, p-glycoprotein expressing mammary tumor versus leukemia
# [2] = system: porcine pseudorabies virus; conditions: rabbit kidney cells
# [3] = system: plasma membrane NADH oxidase (tNOX)
# [4] = system: Crandall Feline Kidney cells (CFK cells), uninfected; experiment: time for complete cell killing, uninfected cells
# [5] = system: Crandall Feline Kidney cells infected with Feline Immunodeficiency Virus (FIV); experiment: time for complete cell killing, FIV-infected cells
structure (smiles),measurement,setting,value
"CC1=CC(=O)C(O)C2(C)C1CC1OC(=O)C(O)C3C(C)C(O)C4(O)OCC13C42 (stereo not drawn) [Glaucarubolone, glaucarubolone]",zone of inhibition C38,C38,900 ZONE UNITS
same,cytopathic effect of human rhinovirus-14,human rhinovirus-14,Cytopathic effect was delayed
same,plants which survived and did not grow for >50 days,[1]; dilution of 1:1000 (2.5×10^−3 oz/A),Approximately 10%
same,time after treatment at which growth resumed,"[1]; dilution of 1:10,000",about 30 days
same,time for which growth was completely stopped,"[1]; dilution of 1:10,000 (2.5×10^−4 oz/A), plants not killed",about 3 weeks
same,"effect on plants, in words","[1]; dilutions of 1:100 and 1:1000 (10 μl/half pot), treated after 10 days of germination",herbicidal
same,height of treated plants,Sorghum (DeKalb 18),12 cm
same,"effect on tomato plants, in words","Tomato plants; 1:1000 and 1:10,000 dilutions in detergent solution, 30 days after treatment",still inhibited
same,"effect on tomato plants, in words",Tomato plants; 100 Mm diluted 1:100 in 0.1% Triton X-100,did not grow and eventually died
same,differential / selectivity for M17/Adr (Mam 17/Adr),M17/Adr,demonstrated selectivity
same,cytopathic effect on non-infected treated control cells,[2]; non-infected,no cytopathic affect
same,cytopathic effect of porcine pseudorabies virus,[2]; visually monitored,inhibited cytopathic effect
same,"inhibition of NADH oxidation, in words","[3]; HeLA (ATCC CCL2 strain), FIG. 10",inhibits NADH oxidation
same,effect of redox poise on inhibition of NADH oxidase activity,"[3]; HeLa cell plasma membranes, FIG. 12",affected little by redox poise
same,"Time for complete cell killing (>98%), Uninfected",[4]; 3 × 10^−4 M,120 h
same,"Time for complete cell killing (>98%), Uninfected",[4]; 3 × 10^−5 M,120 h
same,"Time for complete cell killing (>98%), Uninfected",[4]; 3 × 10^−6 M,144 h
same,"Time for complete cell killing (>98%), Uninfected",[4]; 3 × 10^−7 M,192 h
same,"Time for complete cell killing (>98%), Uninfected",[4]; 3 × 10^−8 M,>192 h
same,"Time for complete cell killing (>98%), Uninfected",[4]; 3 × 10^−9 M,>192 h
same,"Time for complete cell killing (>98%), FIV-Infected",[5]; 3 × 10^−4 M,>168 h
same,"Time for complete cell killing (>98%), FIV-Infected",[5]; 3 × 10^−5 M,>168 h
same,"Time for complete cell killing (>98%), FIV-Infected",[5]; 3 × 10^−6 M,>168 h
same,"Time for complete cell killing (>98%), FIV-Infected",[5]; 3 × 10^−7 M,>168 h
same,"Time for complete cell killing (>98%), FIV-Infected",[5]; 3 × 10^−8 M,>168 h
same,"Time for complete cell killing (>98%), FIV-Infected",[5]; 3 × 10^−9 M,>168 h
same,killing of FIV-infected compared to non-infected CFK cells,"[5]; FIGS. 6 and 7, Table 3",differential killing of infected cells
